Results on 24 compounds are retold here after ChEMBL document CHEMBL6182930, “Discovery of TBK1Molecular Glue Degraders as a Potential Strategy for the Treatment of Autosomal Dominant Polycystic Kidney Disease (ADPKD)” (J Med Chem, 2025).

The IC50 is the concentration that gives 50% inhibition. Higher therefore signals a need for much substance.

In experiment [1] the target is Protein cereblon/Serine/threonine-protein kinase TBK1 (Homo sapiens) (UniProt Q9UHD2+Q96SW2). Nature of the experiment: PROTAC activity at CRBN/TBK1 in human A549 cells assessed as induction of TBK1 degradation at 1 to 10 uM incubated for 16 hrs by Western blot analysis. It is filed as cell-based. As to conditions: dose 1-10 µM. In general terms: In western blotting, separated proteins are transferred to a membrane and probed.
Protein cereblon/Serine/threonine-protein kinase TBK1 (Homo sapiens), sequence (Q96SW2 whole entry, looked up, one chain of several): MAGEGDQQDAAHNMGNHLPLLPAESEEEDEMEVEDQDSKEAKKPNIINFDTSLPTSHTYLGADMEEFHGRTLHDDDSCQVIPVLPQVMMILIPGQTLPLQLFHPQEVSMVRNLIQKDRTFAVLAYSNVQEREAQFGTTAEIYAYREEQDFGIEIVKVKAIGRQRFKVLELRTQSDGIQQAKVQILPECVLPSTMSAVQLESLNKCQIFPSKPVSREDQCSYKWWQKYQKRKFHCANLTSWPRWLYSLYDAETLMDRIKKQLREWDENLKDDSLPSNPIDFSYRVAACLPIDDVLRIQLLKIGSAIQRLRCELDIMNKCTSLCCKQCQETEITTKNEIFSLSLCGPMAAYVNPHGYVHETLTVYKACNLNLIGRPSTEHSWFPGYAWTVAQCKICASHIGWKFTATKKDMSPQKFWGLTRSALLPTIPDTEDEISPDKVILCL

In experiment [2] the target is T1, E3 ubiquitin-protein ligase RNF126/Serine/threonine-protein kinase TBK1 (Homo sapiens, UniProt Q9UHD2+Q9BV68). Nature of the experiment: Molecular glue activity at RNF126/TBK1 in HEK293T cells assessed as induction of TBK1 degradation at 1 uM incubated for 16 hrs by Western blot analysis. It is filed as cell-based.
T1 sequence (Q9BV68 2-311 partner limits assumed, one chain of several): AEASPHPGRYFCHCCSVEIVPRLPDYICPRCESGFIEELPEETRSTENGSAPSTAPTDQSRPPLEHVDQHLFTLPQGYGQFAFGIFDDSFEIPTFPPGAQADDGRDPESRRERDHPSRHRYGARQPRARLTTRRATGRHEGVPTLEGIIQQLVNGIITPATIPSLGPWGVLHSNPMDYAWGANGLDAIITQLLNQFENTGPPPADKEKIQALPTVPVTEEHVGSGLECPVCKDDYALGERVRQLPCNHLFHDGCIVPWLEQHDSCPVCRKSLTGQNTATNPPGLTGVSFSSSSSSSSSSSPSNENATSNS
Experiment [3] addresses T1, E3 ubiquitin-protein ligase RNF126/Serine/threonine-protein kinase TBK1. Nature of the experiment: Molecular glue activity at RNF126/TBK1 in human A549 cells assessed as induction of TBK1 degradation at 1 uM incubated for 16 hrs by Western blot analysis. In kind it is cell-based.
The target in experiment [4] is T2, Serine/threonine-protein kinase TBK1 (Homo sapiens, UniProt Q9UHD2).
T2 sequence (Q9UHD2 whole entry): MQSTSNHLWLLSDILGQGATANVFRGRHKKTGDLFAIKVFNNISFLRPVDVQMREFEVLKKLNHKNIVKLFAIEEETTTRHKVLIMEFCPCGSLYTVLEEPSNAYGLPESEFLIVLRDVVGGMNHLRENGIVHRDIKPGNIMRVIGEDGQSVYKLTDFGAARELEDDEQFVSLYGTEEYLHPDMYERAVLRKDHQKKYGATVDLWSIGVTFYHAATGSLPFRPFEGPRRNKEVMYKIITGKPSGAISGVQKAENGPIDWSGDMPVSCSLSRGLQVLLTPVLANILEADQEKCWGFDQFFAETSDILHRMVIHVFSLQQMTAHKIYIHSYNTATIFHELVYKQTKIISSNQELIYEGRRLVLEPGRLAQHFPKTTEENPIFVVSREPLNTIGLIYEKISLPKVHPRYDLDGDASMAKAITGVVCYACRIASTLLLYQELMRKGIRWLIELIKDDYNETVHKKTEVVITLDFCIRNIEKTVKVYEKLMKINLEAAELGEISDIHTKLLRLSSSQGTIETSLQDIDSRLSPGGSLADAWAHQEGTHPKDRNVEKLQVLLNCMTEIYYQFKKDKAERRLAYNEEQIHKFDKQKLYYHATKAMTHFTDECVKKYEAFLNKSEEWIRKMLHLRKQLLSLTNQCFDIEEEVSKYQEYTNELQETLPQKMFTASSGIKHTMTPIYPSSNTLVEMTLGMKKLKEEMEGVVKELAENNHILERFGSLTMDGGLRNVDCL
The experiment in a line: Inhibition of TBK1-dependent SEAP reporter gene expression in LPS-stimulated human THP1-Blue ISG cells incubated for 24 hrs by QUANTI-Blue reagent based analysis. It is filed as cell-based.

The test system of experiment [5] is MDCK. Nature of the experiment: Inhibition of cystogenesis in forskolin-stimulated MDCK cells assessed as reduction in cyst growth at 100 nM administrated for 8 days starting from day 4 to day 12 by imaging analysis. In kind it is functional, cell-based. Particulars: Canis lupus familiaris, time 8.0 day.

The source made the active and inactive calls. The calls are words filed in the database; no cut-off is given here.

Turning to `O=C1CCC(N2C(=O)c3ccc(OCCCCCCCCCCCC(=O)N4CCN(Cc5cccc(Nc6ncc7ccn(CCCNC(=O)C8CCC8)c7n6)c5)CC4)cc3C2=O)C(=O)N1` (stereo unspecified), the result in experiment [1] was inactive.

As for `COc1ccc(C(=O)/C=C/C(=O)N2CCN(Cc3cccc(Nc4ncc5ccn(CCCNC(=O)C6CCC6)c5n4)c3)CC2)cc1`, the result in experiment [2] and in experiment [3] was Active.

With `O=C1CCC(N2C(=O)c3ccc(OCCCCCCCCCC(=O)N4CCN(Cc5cccc(Nc6ncc7ccn(CCCNC(=O)C8CCC8)c7n6)c5)CC4)cc3C2=O)C(=O)N1` (stereo unspecified), in experiment [1], the outcome was inactive.

On to `COc1ccc(C(=O)/C=C/C(=O)N2CCN(Cc3ccc(Nc4ncc5ccn(CCCNC(=O)C6CCC6)c5n4)cc3)CC2)cc1`, for which the outcome in experiment [2] and in experiment [3] was Active.

Regarding `COc1ccc(C(=O)CCC(=O)N2CCN(CC3CCN(Cc4cccc(Nc5ncc6ccn(CCCNC(=O)C7CCC7)c6n5)c4)CC3)CC2)cc1`, the outcome in experiment [2] and in experiment [3] was inactive.

Regarding `Cc1ncsc1-c1ccc(CNC(=O)[C@@H]2C[C@@H](O)CN2C(=O)[C@H](NC(=O)CCCCCCCCCCC(=O)N2CCN(Cc3cccc(Nc4ncc5ccn(CCCNC(=O)C6CCC6)c5n4)c3)CC2)C(C)(C)C)cc1`, the outcome in experiment [1] was inactive.

With `Cc1ncsc1-c1ccc(CNC(=O)[C@H]2C[C@H](O)CN2C(=O)[C@@H](NC(=O)COCCOCCOCC(=O)N2CCN(Cc3cccc(Nc4ncc5ccn(CCCNC(=O)C6CCC6)c5n4)c3)CC2)C(C)(C)C)cc1`, in experiment [1], the outcome was inactive.

For the compound `O=C1CCC(N2C(=O)c3ccc(OCCCCCC(=O)N4CCN(Cc5cccc(Nc6ncc7ccn(CCCNC(=O)C8CCC8)c7n6)c5)CC4)cc3C2=O)C(=O)N1` (stereo unspecified), the Activity result in experiment [1] is “Active; Compound Exhibited Only Weak Degradation Compared To Control 3I”.

As to `Cc1ncsc1-c1ccc(CNC(=O)[C@@H]2C[C@@H](O)CN2C(=O)[C@H](NC(=O)CCC(=O)N2CCN(Cc3cccc(Nc4ncc5ccn(CCCNC(=O)C6CCC6)c5n4)c3)CC2)C(C)(C)C)cc1`, the Activity entry in experiment [1] is recorded as “Active; Compound Exhibited Only Weak Degradation Compared To Control 3I”.

As to `Cc1ncsc1-c1ccc(CNC(=O)[C@@H]2C[C@@H](O)CN2C(=O)[C@H](NC(=O)CCCCCCC(=O)N2CCN(Cc3cccc(Nc4ncc5ccn(CCCNC(=O)C6CCC6)c5n4)c3)CC2)C(C)(C)C)cc1`, the result in experiment [1] was inactive.

`Cc1ncsc1-c1ccc(CNC(=O)[C@@H]2C[C@@H](O)CN2C(=O)[C@H](NC(=O)CCCCCCCCC(=O)N2CCN(Cc3cccc(Nc4ncc5ccn(CCCNC(=O)C6CCC6)c5n4)c3)CC2)C(C)(C)C)cc1`: in experiment [1], the outcome was inactive.

Consider `O=C1CCC(N2C(=O)c3ccc(OCCCCCCCC(=O)N4CCN(Cc5cccc(Nc6ncc7ccn(CCCNC(=O)C8CCC8)c7n6)c5)CC4)cc3C2=O)C(=O)N1` (stereo unspecified), for which the result in experiment [1] was inactive.

For the compound `Cc1ncsc1-c1ccc(CNC(=O)[C@H]2C[C@H](O)CN2C(=O)[C@@H](NC(=O)COCC(=O)N2CCN(Cc3cccc(Nc4ncc5ccn(CCCNC(=O)C6CCC6)c5n4)c3)CC2)C(C)(C)C)cc1`, the result in experiment [1] was inactive.

For `O=C1CCC(N2C(=O)c3cccc(NCCOCCOCCC(=O)N4CCN(Cc5cccc(Nc6ncc7ccn(CCCNC(=O)C8CCC8)c7n6)c5)CC4)c3C2=O)C(=O)N1` (stereo unspecified), in experiment [1], the result was inactive.

`COc1ccc(C(=O)/C=C/C(=O)N2CCN(C)CC2)cc1`: the outcome in experiment [2] and in experiment [3] was inactive.

For the compound `O=C1CCC(N2C(=O)c3cccc(NCCCCCC(=O)N4CCN(Cc5cccc(Nc6ncc7ccn(CCCNC(=O)C8CCC8)c7n6)c5)CC4)c3C2=O)C(=O)N1` (stereo unspecified), the result in experiment [1] was inactive.

With `COc1ccc(C(=O)/C=C(\C#N)C(=O)N2CCN(Cc3cccc(Nc4ncc5ccn(CCCNC(=O)C6CCC6)c5n4)c3)CC2)cc1`, the result in experiment [2] and in experiment [3] was inactive.

In turn, `Cc1ncsc1-c1ccc(CNC(=O)[C@@H]2C[C@@H](O)CN2C(=O)[C@@H](NC(=O)COCCCOCCCCOCCCOc2ccc(Nc3ncc(Br)c(NCCCN(C)C(=O)C4CCC4)n3)cc2)C(C)(C)C)cc1` returned an IC50 in experiment [4] of 76.4 nM.

Turning to `CC(=O)N1CCN(Cc2cccc(Nc3ncc4ccn(CCCNC(=O)C5CCC5)c4n3)c2)CC1`, the inhibition result in experiment [5] was “inactive”. Moreover, in experiment [4], the IC50 amounted to 228 nM.

As to `COc1ccc(C(=O)/C(C#N)=C/C(=O)N2CCN(Cc3cccc(Nc4ncc5ccn(CCCNC(=O)C6CCC6)c5n4)c3)CC2)cc1`, the result in experiment [2] and in experiment [3] was inactive.

Turning to `Cc1ncsc1-c1ccc(CNC(=O)[C@@H]2C[C@@H](O)CN2C(=O)[C@H](NC(=O)CCCCC(=O)N2CCN(Cc3cccc(Nc4ncc5ccn(CCCNC(=O)C6CCC6)c5n4)c3)CC2)C(C)(C)C)cc1`, the outcome in experiment [1] was inactive.

On to `O=C1CCC(N2C(=O)c3cccc(NCCCC(=O)N4CCN(Cc5cccc(Nc6ncc7ccn(CCCNC(=O)C8CCC8)c7n6)c5)CC4)c3C2=O)C(=O)N1` (stereo unspecified), for which the Activity result in experiment [1] is listed as “Active; Compound Exhibited Only Weak Degradation Compared To Control 3I”.

`O=C1CCC(N2C(=O)c3cccc(NCCCCCCCCCC(=O)N4CCN(Cc5cccc(Nc6ncc7ccn(CCCNC(=O)C8CCC8)c7n6)c5)CC4)c3C2=O)C(=O)N1` (stereo unspecified): in experiment [1], the result was inactive.

As to `O=C1CCC(N2C(=O)c3cccc(NCCCCCCCC(=O)N4CCN(Cc5cccc(Nc6ncc7ccn(CCCNC(=O)C8CCC8)c7n6)c5)CC4)c3C2=O)C(=O)N1` (stereo unspecified), the result in experiment [1] was inactive.
